Patent publication US20170002360A1, “PROTEIN PHOSPHATASE INHIBITOR” (priority 2013, published 2017)

Columns and labels:
[1] = test system: DU145/RCO.1 cells; assay: CPT titration, loss of viability, CPT resistant cells with or without PPEF1 SiRNA; type: cell-based; details: 48 hrs post CPT treatment
Text: (§1) FIG. 6B: Camptothecin treatment of CPT approved resistant cells. CPT was titrated on DU145/RCO.1 cells reported to be resistant to CPT. 48 hrs post CPT treatment, the cells were examined for the loss of viability compared to control (untreated)
as §1, with “6C:” for “6B:”, “cells after PPEF1 inhibition. 24 hrs post PPEF1 SiRNA treatment,” for “cells.”
(§2) In addition to the described experiments, the effect of inhibiting the phosphatase PPEF1 on characterized published drug resistant cell lines was assessed. The resistant cell lines used in these experiments were DU145/RCO.1 cells, which were kindly provided by Prof. Dr. Yves Pommier from the Laboratory of Molecular Pharmacology, Center of Cancer research, National Cancer institute, Bethesda, USA. These DU145/RCO.1 cells and their resistance to CPT) have been described Urasaki et al. (Cancer Research 61, 2001, pp. 1964-1969). Initially, DU145 prostate cancer wild type cell line was treated with varying concentrations of camptothecin (CPT).
The results of these experiments can be seen in FIG. 6c.

[2] = test system: DU145 prostate cancer wild type cell line; assay: CPT titration, loss of viability, wild-type prostate cancer cells; type: cell-based; details: varying concentrations of CPT; 48 hrs post CPT treatment
Experimental: FIG. 6A: Camptothecin (CPT) treatment of DU145 prostate cancer wild-type cell line. CPT was titrated on DU145 wild-type cells and 48 hrs post CPT treatment, the cells were examined for the loss of viability compared to control (untreated)
as §2

Compound: Example 2: SiRNA oligonucleotide targeting PPEF1, CAGTTCGAATCTGGTAAACAT, obtained from Qiagen (chemistry not given here)
- sensitivity to CPT / viability ([1]; CPT titrated 24 hrs post PPEF1 SiRNA treatment): became sensitive and lost viability

Compound: CC[C@@]1(O)C(=O)OCc2c1cc1n(c2=O)Cc2cc3ccccc3nc2-1 [CPT, camptothecin]
- viability [2]: greatly reduced
- viability ([1]; varying concentrations of CPT alone): did not significantly change
